From patent publication EP1100481B1, “PHARMACEUTICAL FORMULATIONS COMPRISING BECLOMETHASONE DIPROPIONATE FOR THE TREATMENT OF INFLAMMATORY BOWEL DISEASE” (CHIESI FARMACEUTICI S.p.A., priority 1998, dated 2000)

Test: Pharmacokinetic-scintigraphic study of systemic absorption
Type: in vivo
Conditions: healthy volunteers
Procedure: The disintegration behavior of the tablets was also evaluated in vivo, at the intestinal site, in a study carried out on 8 healthy volunteers. A scintigraphic technique was employed as it is suitable for evaluating the position and integrity of the tablet within the gastrointestinal tract (Steed K.P. et al. Int J Pharmaceutics 1994; 112:199-206). […] These findings confirmed that the modified-relase tablets of the invention meet the requirements considered necessary for a formulation designed for the topical treatment of inflammatory bowel disease.

CCC(=O)OCC(=O)[C@@]1(OC(=O)CC)[C@@H](C)C[C@H]2[C@@H]3CCC4=CC(=O)C=C[C@]4(C)[C@@]3(Cl)[C@@H](O)C[C@@]21C [BDP, beclomethasone dipropionate]
systemic absorption of unmetabolised BDP and/or of its metabolites: absence of systemic absorption
